We go through four compounds from US20220347267A1, “METHODS TO IMPROVE PATIENT RESPONSE TO IMMUNE CHECKPOINT INHIBITORS AND FUNCTIONAL TESTS TO PREDICT RESPONSE” (Biomarker Strategies, LLC, priority 2019, published 2022).

Type in all cases: cell-based, human
One test concerns H292 cells. Put plainly: PD-L1 western blot after modulators (EM and MTAs). To be noted: NSCLC H292, 30 minutes, 3 hours, 24 hours. The source says:
(§1) Cell lines were acquired from ATCC, Sigma, or DSMZ. Human non-small cell lung carcinoma (NSCLC) cell lines H292 (ATCC no. CRL-1848.), H1299 (ATCC no. CRL-5803), H520 (ATCC no. CRL-5811), CALU6 (ATCC no. HTB-56), H1975 (ATCC no. CRL-5908), H460 (ATCC no. HTB-177), H2126 (ATCC no. CCL-256), H1650 (ATCC no. CRL-5883), and H2087 (ATCC no. CRL-5922) were used for this experiment along with head and neck squamous cell carcinoma (HNSCC) cell lines BHY (DSMZ ACC 404), CAL27 (ATCC no. CRL-2095), KYSE410 (Sigma), and A253 (ATCC no. HTB-41), melanoma cell lines A375 (ATCC no. CRL-1619), COL0853 (Sigma), and MM127 (Sigma) pancreatic cancer cell lines BXPC3 (ATCC no. CRL-1687), colorectal cancer cell lines […], HCT116 (ATCC no. CCL-247EMT), and breast cancer cell lines BT549 (ATCC no. HTB-122), BT20 (ATCC no. HTB-19), and T47D (ATCC no. HTB-133). Cells were maintained in manufacturer-recommended conditions at 37° C. inside humidified 5% CO2 incubators. Sub-cultivation and harvesting for all cell lines were performed using Accutase (GIBCO Life Technologies; cat. no. A1110501) at 37° C. for 10 minutes. Cell viability was measured using trypan blue exclusion staining in conjunction with the Countess II Automated Cell Counter (Thermo Fischer Scientific; cat. no. AMQAX1000). Measurements were made in duplicate and the average number of viable cells was recorded prior to experiments.
(§2) T7039), and IL-10 (50 ng/ml; Sigma Aldrich cat. no. SRP3071) were administered to cell lines for various times including 30 minutes, 3 hour, and 24 hour time intervals prior to cell lysis and protein extraction.
(§3) To determine the effects of the aforementioned molecules on the modulation of PD-L1, we selected various NSCLC, HNSCC, breast cancer, melanoma, colorectal cancer, and pancreatic cancer cell lines as examples. Other diseases or cell lines could be used readily as could more complex samples such as cells isolated from xenografts and clinical samples. Cells were plated, for three different time points (30 minutes, 3 hours, and 24 hours), inside 6-well petri dishes with 2 mL of appropriate medium. Plates were incubated for 24 hours in 5% CO2 incubators at 37° C. After 24 hours, each 6-well plate was washed with PBS (Gibco Life Technologies, cat. no. 10010023) followed by fresh media being added along with each cell line's vehicle control or appropriate modulator for each specific time point, and were placed in CO2 incubators until their modulation time point was reached. Other conditions can be readily used, such as processing on automated systems such as SnapPath. At the end of each time point, while keeping plates on ice, cell lysis was conducted by aspirating culture medium from each plate, washing of each plate three times with 5 ml of cold PBS (Gibco Life Technologies, cat. no. 10010023) and culminated with the addition of cold 1× lysis buffer containing (Cell Signaling, cat. no. 9803 S) protease inhibitor cocktail (Cell Signaling, cat. no. 5871S), phosphatase inhibitor cocktail (Cell Signaling, cat. no. 5870S), and PMSF (Fisher Scientific, cat. no. ICN19538101). Plates were then placed on ice for ten minutes, swirling each plate intermittently. Aliquots of protein lysates were prepared and then stored at −80° C. until protein quantification and Western blot analysis was to be conducted. The protein concentration of each lysate was analyzed by using the Pierce 660 Protein Assay Reagent (Thermo Fisher Scientific, cat. no. 22660) and testing of each sample was conducted in duplicate. Two μg of protein was then loaded per lane into 10% Midi-PROTEAN TGX Precast Gels (Bio Rad, cat. no. 5671034) along with Kaleidoscope Prestained Protein Standard (BioRad, cat. no. 1610375) which ran at 220V for 45 minutes. Proteins were transferred to mini-PVDF membranes (BioRad, cat. no. 1704156) in 3 minutes using the Trans-Blot Turbo Transfer System (BioRad, cat. no. 1704150EDU).

The subject of the next test is BxPC3 cells. Put plainly: PD-L1 western blot after modulators (EM and MTAs). To be noted: Pancreatic BxPC3, 30 minutes, 3 hours, 24 hours.
Text: as §1
(§4) Enhancer Molecule and Therapies: IFNγ, (10 ng/ml; Sigma Aldrich, cat.no 11040596001), TNFα (10 ng/ml; BD Biosciences cat. no. 554618), Osimertinib (100 ng/ml; Selleckchem cat.no. S7297), Everolimus (100 ng/ml; Selleckchem cat.no S1120), GSK458 (10 ng/ml; Selleckchem cat. no. S2658), TNFb (50 ng/ml; Sigma Aldrich cat. no.), GSK795 (1,000 ng/ml; Selleckchem cat. no. S7492), IL-12 (50 ng/ml; Sigma Aldrich SRP3073), GM-CSF (50 ng/ml; Sigma Aldrich cat. no. G5035), IL-1a (1 ng/ml; Sigma Aldrich cat. no. 12778-), IL-6 (50 ng/ml; Sigma Aldrich), IL-17 (100 ng/ml; Sigma Aldrich cat. no. SRP3080), TGFb (1 ng/ml; Sigma Aldrich cat. no. T7039), and IL-10 (50 ng/ml; Sigma Aldrich cat. no. SRP3071) were administered to cell lines for various times including 30 minutes, 3 hour, and 24 hour time intervals prior to cell lysis and protein extraction.
as §3, with “The protein concentration of each lysate was analyzed by using the Pierce 660 Protein Assay Reagent (Thermo Fisher Scientific, cat. no. 22660) and testing of each sample was conducted in duplicate. Two μg of protein was then loaded per lane into 10% Midi-PROTEAN TGX Precast Gels (Bio Rad, cat. no. 5671034) along with Kaleidoscope Prestained Protein Standard (BioRad, cat. no. 1610375) which ran at 220V for 45 minutes. Proteins were transferred to mini-PVDF membranes (BioRad, cat. no. 1704156) in 3 minutes using the Trans-Blot Turbo Transfer System (BioRad, cat. no. 1704150EDU).” left out

A further test relates to BT20 cells. Put plainly: PD-L1 western blot after modulators (EM and MTAs). To be noted: Breast BT20, 30 minutes, 3 hours, 24 hours.
Text: as §1, §4
as §3, with “The protein concentration of each lysate was analyzed by using the Pierce 660 Protein Assay Reagent (Thermo Fisher Scientific, cat. no. 22660) and testing of each sample was conducted in duplicate. Two μg of protein was then loaded per lane into 10% Midi-PROTEAN TGX Precast Gels (Bio Rad, cat. no. 5671034) along with Kaleidoscope Prestained Protein Standard (BioRad, cat. no. 1610375) which ran at 220V for 45 minutes. Proteins were transferred to mini-PVDF membranes (BioRad, cat. no. 1704156) in 3 minutes using the Trans-Blot Turbo Transfer System (BioRad, cat. no. 1704150EDU).” left out

The subject of test [1] is various NSCLC, HNSCC, breast cancer, melanoma, colorectal cancer, and pancreatic cancer cell lines. Put plainly: PD-L1 western blot after modulators, summary over all samples. To be noted: depending on the sample, summary of Table 3.
Text: as §1, §2, §3

The test system of another test is BT549 cells. Put plainly: PD-L1 western blot after modulators (EM and MTAs). To be noted: Breast BT549, 30 minutes, 3 hours, 24 hours.
Text: as §1, §2, §3

In the next test the test system is CAL27 cells. Put plainly: PD-L1 western blot after modulators (EM and MTAs). To be noted: Head and neck CAL27, 30 minutes, 3 hours, 24 hours.
Text: as §1, §4
as §3, with “The protein concentration of each lysate was analyzed by using the Pierce 660 Protein Assay Reagent (Thermo Fisher Scientific, cat. no. 22660) and testing of each sample was conducted in duplicate. Two μg of protein was then loaded per lane into 10% Midi-PROTEAN TGX Precast Gels (Bio Rad, cat. no. 5671034) along with Kaleidoscope Prestained Protein Standard (BioRad, cat. no. 1610375) which ran at 220V for 45 minutes. Proteins were transferred to mini-PVDF membranes (BioRad, cat. no. 1704156) in 3 minutes using the Trans-Blot Turbo Transfer System (BioRad, cat. no. 1704150EDU).” left out

A further test concerns H1975 cells. Nature of the test: PD-L1 western blot after modulators (EM and MTAs). To be noted: NSCLC H1975, 30 minutes, 3 hours, 24 hours.
Text: as §1, §4
as §3, with “The protein concentration of each lysate was analyzed by using the Pierce 660 Protein Assay Reagent (Thermo Fisher Scientific, cat. no. 22660) and testing of each sample was conducted in duplicate. Two μg of protein was then loaded per lane into 10% Midi-PROTEAN TGX Precast Gels (Bio Rad, cat. no. 5671034) along with Kaleidoscope Prestained Protein Standard (BioRad, cat. no. 1610375) which ran at 220V for 45 minutes. Proteins were transferred to mini-PVDF membranes (BioRad, cat. no. 1704156) in 3 minutes using the Trans-Blot Turbo Transfer System (BioRad, cat. no. 1704150EDU).” left out

A further test concerns BHY cells. Nature of the test: PD-L1 western blot after modulators (EM and MTAs). To be noted: Head and neck BHY, 30 minutes, 3 hours, 24 hours.
Text: as §1, §4
as §3, with “The protein concentration of each lysate was analyzed by using the Pierce 660 Protein Assay Reagent (Thermo Fisher Scientific, cat. no. 22660) and testing of each sample was conducted in duplicate. Two μg of protein was then loaded per lane into 10% Midi-PROTEAN TGX Precast Gels (Bio Rad, cat. no. 5671034) along with Kaleidoscope Prestained Protein Standard (BioRad, cat. no. 1610375) which ran at 220V for 45 minutes. Proteins were transferred to mini-PVDF membranes (BioRad, cat. no. 1704156) in 3 minutes using the Trans-Blot Turbo Transfer System (BioRad, cat. no. 1704150EDU).” left out

A further test has as its system KYSE410 cells. Nature of the test: PD-L1 western blot after modulators (EM and MTAs). To be noted: Head and neck KYSE410, 30 minutes, 3 hours, 24 hours.
Text: as §1, §4
as §3, with “The protein concentration of each lysate was analyzed by using the Pierce 660 Protein Assay Reagent (Thermo Fisher Scientific, cat. no. 22660) and testing of each sample was conducted in duplicate. Two μg of protein was then loaded per lane into 10% Midi-PROTEAN TGX Precast Gels (Bio Rad, cat. no. 5671034) along with Kaleidoscope Prestained Protein Standard (BioRad, cat. no. 1610375) which ran at 220V for 45 minutes. Proteins were transferred to mini-PVDF membranes (BioRad, cat. no. 1704156) in 3 minutes using the Trans-Blot Turbo Transfer System (BioRad, cat. no. 1704150EDU).” left out

For the compound `COc1ncc(-c2ccc3nccc(-c4ccnnc4)c3c2)cc1NS(=O)(=O)c1ccc(F)cc1F` [GSK458, reference compound], the “PD-L1 Response” value is given as “Down” in the test with H292 cells, “Up” in the test with BxPC3 cells and “Up” with BT20 cells. Also, the “regulation of PD-L1 across samples” value in test [1] was “both up and down regulation”.

With `Cn1ncc(Cl)c1-c1cc(C(=O)N[C@H](CN)Cc2ccc(F)c(F)c2)oc1Cl` [GSK795, reference compound], the “PD-L1 Response” value in the test on BT549 cells was “Up”; in the test with CAL27 cells, “Up”; in the test on H1975 cells it was “Down”; in the test on BHY cells, “Up”.

As to `C=CC(=O)Nc1cc(Nc2nccc(-c3cn(C)c4ccccc34)n2)c(OC)cc1N(C)CCN(C)C` [Osimertinib, reference compound], the figures for the “PD-L1 Response” value in the test with H292 cells, in the test on BHY cells and with KYSE410 cells were “Down”, “Up” and “Up”, respectively. In [1], the “regulation of PD-L1 across samples” value is “both up and down regulation”.

For `CO[C@H]1C[C@@H]2CC[C@@H](C)[C@@](O)(O2)C(=O)C(=O)N2CCCC[C@H]2C(=O)O[C@H]([C@H](C)C[C@@H]2CC[C@@H](OCCO)[C@H](OC)C2)CC(=O)[C@H](C)/C=C(\C)[C@@H](O)[C@@H](OC)C(=O)[C@H](C)C[C@H](C)/C=C/C=C/C=C/1C` [everolimus, Everolimus], the “PD-L1 Response” value was “Down” in the test with H292 cells and “Up” with BxPC3 cells. Also, the “regulation of PD-L1 across samples” value in test [1] is “both up and down regulation”.
